Data taken from US4965280A, “Antifungal carbinols” (E. I. Du Pont de Nemours and Company, priority 1989, dated 1990).

Tests used:
Assay in all cases: Test D
[1] = test system: PURPLE NUTSEDGE; assay type: in vivo, Cyperus rotundus
[2] = test system: IVY MORNINGLORY; assay type: in vivo, Ipomoea hederacea
[3] = test system: BARNYARDGRASS; assay type: in vivo, Echinochloa crus-galli
Experimental: (§1) The Corn and Sorghum Herbicide Test included the following species in both the preemergence and postemergence evaluations:
(§2) Postemergence plantings were grown in Sassafras sandy loam soil. Corn and soybeans were grown in separate 25 cm diameter containers. Sorghum and the seven grass weed species were grown in two 18 cm diameter containers, 4 species per container. The seven broadleaf weed species were also grown in two 18 cm diameter containers, 4 species in one container, 3 species in the second container. One additional planting of corn in an 18 cm diameter container was made. The soil surface of this additional container of corn was covered with the absorbent, perlite, before spray treatment so that test chemicals would enter the plant only via the foliage. The plants were grown 10-21 days, dependent upon the species and then sprayed postemergence with the test chemicals dissolved in a nonpytotoxic solvent.
(§3) Preemergence plantings were grown in fertilized Tama silt loam soil. These plantings are identical to those described in the postemergence section, with the exception of the corn planting having perlite covering the soil surface. These plantings were made the day of or the day before spraying the test chemicals dissolved in a nonphytotoxic solvent.
(§4) Treated plants and controls were maintained in the greenhouse for 2 to 4 weeks. Visual planting response ratings were made on a percentage scale of 0 to 100 in comparison with a control where 0=no injury, and 100=death.

[4] = test system: LARGE CRABGRASS; assay type: in vivo, Digitaria sanguinalis
[5] = test system: LADY SMARTWEED; assay type: in vivo, Polygonum persicaris
Experimental: as §1, §2, §3, §4

[6] = test system: REDROOT PIGWEED; assay type: in vivo, Amaranthus retroflexus
[7] = test system: COCKLEBUR; assay type: in vivo, Xanthium pensylvanicum

Measured: plant response

C=C(c1ccccc1Cl)C(O)(Cn1cncn1)c1ccc(Cl)cc1Cl (centres unmarked) [Example 33, 2-(2,4-Dichlorophenyl)-3-(2-chlorophenyl)-1-(1H-1,2,4-triazol-1-yl)-3-buten-2-ol]
0%: [1]; POSTEMERGENCE 0250 GM/HA | [1]; POSTEMERGENCE 0500 GM/HA | [1]; POSTEMERGENCE 1000 GM/HA | [1]; PREEMERGENCE 0250 GM/HA | [1]; PREEMERGENCE 0500 GM/HA | [1]; PREEMERGENCE 1000 GM/HA | [2]; POSTEMERGENCE 0250 GM/HA | [2]; POSTEMERGENCE 0500 GM/HA | [2]; POSTEMERGENCE 1000 GM/HA | [2]; PREEMERGENCE 0250 GM/HA | [2]; PREEMERGENCE 0500 GM/HA | [2]; PREEMERGENCE 1000 GM/HA | [3]; POSTEMERGENCE 0250 GM/HA | [3]; POSTEMERGENCE 0500 GM/HA | [3]; POSTEMERGENCE 1000 GM/HA | [3]; PREEMERGENCE 0250 GM/HA | [3]; PREEMERGENCE 0500 GM/HA | [3]; PREEMERGENCE 1000 GM/HA | [4]; POSTEMERGENCE 0250 GM/HA | [4]; POSTEMERGENCE 0500 GM/HA | [4]; POSTEMERGENCE 1000 GM/HA | [4]; PREEMERGENCE 0250 GM/HA | [4]; PREEMERGENCE 0500 GM/HA | [4]; PREEMERGENCE 1000 GM/HA | [5]; POSTEMERGENCE 0250 GM/HA | [5]; POSTEMERGENCE 0500 GM/HA | [5]; POSTEMERGENCE 1000 GM/HA | [5]; PREEMERGENCE 0250 GM/HA | [5]; PREEMERGENCE 0500 GM/HA | [5]; PREEMERGENCE 1000 GM/HA | [6]; POSTEMERGENCE 0250 GM/HA | [6]; POSTEMERGENCE 0500 GM/HA | [6]; POSTEMERGENCE 1000 GM/HA | [6]; PREEMERGENCE 0250 GM/HA | [6]; PREEMERGENCE 0500 GM/HA | [6]; PREEMERGENCE 1000 GM/HA | [7]; POSTEMERGENCE 0250 GM/HA | [7]; POSTEMERGENCE 0500 GM/HA | [7]; POSTEMERGENCE 1000 GM/HA | [7]; PREEMERGENCE 0250 GM/HA | [7]; PREEMERGENCE 0500 GM/HA | [7]; PREEMERGENCE 1000 GM/HA

C=C(c1ccccc1Cl)C(O)(Cn1cncn1)c1ccc(F)cc1F (centres unmarked) [Example 35]
98%: [6]; PREEMERGENCE 0500 GM/HA
60%: [3]; POSTEMERGENCE 0500 GM/HA | [3]; PREEMERGENCE 0125 GM/HA
95%: [4]; PREEMERGENCE 0250 GM/HA
100%: [3]; PREEMERGENCE 0500 GM/HA | [4]; PREEMERGENCE 0500 GM/HA | [5]; PREEMERGENCE 0500 GM/HA
70%: [4]; PREEMERGENCE 0125 GM/HA | [6]; POSTEMERGENCE 0500 GM/HA
40%: [3]; POSTEMERGENCE 0250 GM/HA | [3]; PREEMERGENCE 0250 GM/HA
20%: [2]; POSTEMERGENCE 0250 GM/HA | [7]; PREEMERGENCE 0500 GM/HA
50%: [1]; PREEMERGENCE 0500 GM/HA | [4]; PREEMERGENCE 0064 GM/HA | [5]; POSTEMERGENCE 0250 GM/HA | [5]; POSTEMERGENCE 0500 GM/HA | [5]; PREEMERGENCE 0250 GM/HA | [6]; PREEMERGENCE 0250 GM/HA
0%: [1]; POSTEMERGENCE 0250 GM/HA | [1]; POSTEMERGENCE 0500 GM/HA | [1]; PREEMERGENCE 0125 GM/HA | [1]; PREEMERGENCE 0250 GM/HA | [2]; PREEMERGENCE 0064 GM/HA | [2]; PREEMERGENCE 0125 GM/HA | [2]; PREEMERGENCE 0250 GM/HA | [3]; PREEMERGENCE 0064 GM/HA | [5]; PREEMERGENCE 0064 GM/HA | [6]; PREEMERGENCE 0064 GM/HA | [6]; PREEMERGENCE 0125 GM/HA | [7]; POSTEMERGENCE 0250 GM/HA | [7]; PREEMERGENCE 0064 GM/HA | [7]; PREEMERGENCE 0125 GM/HA | [7]; PREEMERGENCE 0250 GM/HA
30%: [2]; POSTEMERGENCE 0500 GM/HA | [2]; PREEMERGENCE 0500 GM/HA | [4]; POSTEMERGENCE 0250 GM/HA | [4]; POSTEMERGENCE 0500 GM/HA | [5]; PREEMERGENCE 0125 GM/HA | [6]; POSTEMERGENCE 0250 GM/HA | [7]; POSTEMERGENCE 0500 GM/HA
